Data as given in PMC7614683, “A small molecule PI3Kα activator for cardioprotection and neuroregeneration” (Nature, 2023).

How the values were obtained:
[1] = system: PI3Kα-KO MEFs transiently transfected with PIK3CA constructs; assay: pAKT S473 in PI3Kα-KO MEFs transfected with p110α-WT or p110α-mutants; type: cell-based, mouse; conditions: 1938 5 μM
Description: Flag-PIK3R1 (a kind gift of Neil Vasan), PIK3CA-WT and mutant PIK3CA (D603K, L1006R, F1016S and L1006R/F1016S) were cloned into pcDNA3.4TOPO. pcDNA3-eGFP was used as a control for transfection efficiency and is available on Addgene repository upon request (Plasmid #13031). The mutations in PIK3CA were introduced by site-directed mutagenesis according to published commercial protocols using NEBuilder HiFi DNA Assembly Master Mix (NEB E2621). For each mutation, a pair of primers were designed to incorporate a mutation within the gene, with the resulting PCR products containing a 20 bp overlap and the desired mutations. The DpnI-treated and purified PCR products were combined with the linearized vector and treated with the NEBuilder HiFi DNA Assembly Master Mix. Following transformation, single colonies were grown and purified with QIAprep spin Miniprep kit (Qiagen 27106). All plasmids were sequenced for verification.
eGFP, Flag-PIK3R1, PIK3CA-WT and mutant PIK3CA (D603K, L1006R, F1016S, L1006R/F1016S) plasmids were used for transient transfection. Pik3ca-KO MEFs cells were seeded at 70-80% confluency in 6-well plate at 100,000 cells per well. […]

rat sciatic nerve = assay: pAkt generation in exposed rat sciatic nerves; type: in vivo; conditions: direct injection or bathing, 1938 5 μM, 30 min
Description: To assess if 1938 could induce pAkt generation in exposed rat sciatic nerves, adult male Sprague Dawley rats (>250g; n=2) were anaesthetised using isoflurane, the left sciatic nerve was exposed and injected with 2 μl vehicle (sterile dH2O) or 1938 (5 μM in sterile dH2O). Meanwhile the right sciatic nerve was exposed and bathed in 250 μl of vehicle (sterile dH2O) or 1938 (5 μM in sterile dH2O). Each animal received one vehicle and one compound treatment. The treatments were left on for 30 min prior to washing the bathed nerves with sterile PBS and culling via sodium pentobarbital injection according to local regulations. Nerves were then harvested, washed in fresh 4°C PBS and stored in a fresh vial before snap freezing in liquid nitrogen. Frozen sciatic nerves were homogenised in RIPA buffer supplemented with protease and phosphatase inhibitors using a mortar and pestle homogeniser. The subsequent crude lysates were centrifuged at 10,000xg for 10 min at 4°C, the supernatant harvested and stored at -80°C prior to automated western blot (Wes) analysis for pAkt and controls (Extended Data Fig. 9a; bottom panel).

ATM = molecular target: T1, ATM (Homo sapiens, UniProt Q13315); assay: ATM in vitro kinase assay (Phos-tag gel); type: biochemical; conditions: 200 μM 1938
T1 construct: made in house
T1 sequence (Q13315 whole entry): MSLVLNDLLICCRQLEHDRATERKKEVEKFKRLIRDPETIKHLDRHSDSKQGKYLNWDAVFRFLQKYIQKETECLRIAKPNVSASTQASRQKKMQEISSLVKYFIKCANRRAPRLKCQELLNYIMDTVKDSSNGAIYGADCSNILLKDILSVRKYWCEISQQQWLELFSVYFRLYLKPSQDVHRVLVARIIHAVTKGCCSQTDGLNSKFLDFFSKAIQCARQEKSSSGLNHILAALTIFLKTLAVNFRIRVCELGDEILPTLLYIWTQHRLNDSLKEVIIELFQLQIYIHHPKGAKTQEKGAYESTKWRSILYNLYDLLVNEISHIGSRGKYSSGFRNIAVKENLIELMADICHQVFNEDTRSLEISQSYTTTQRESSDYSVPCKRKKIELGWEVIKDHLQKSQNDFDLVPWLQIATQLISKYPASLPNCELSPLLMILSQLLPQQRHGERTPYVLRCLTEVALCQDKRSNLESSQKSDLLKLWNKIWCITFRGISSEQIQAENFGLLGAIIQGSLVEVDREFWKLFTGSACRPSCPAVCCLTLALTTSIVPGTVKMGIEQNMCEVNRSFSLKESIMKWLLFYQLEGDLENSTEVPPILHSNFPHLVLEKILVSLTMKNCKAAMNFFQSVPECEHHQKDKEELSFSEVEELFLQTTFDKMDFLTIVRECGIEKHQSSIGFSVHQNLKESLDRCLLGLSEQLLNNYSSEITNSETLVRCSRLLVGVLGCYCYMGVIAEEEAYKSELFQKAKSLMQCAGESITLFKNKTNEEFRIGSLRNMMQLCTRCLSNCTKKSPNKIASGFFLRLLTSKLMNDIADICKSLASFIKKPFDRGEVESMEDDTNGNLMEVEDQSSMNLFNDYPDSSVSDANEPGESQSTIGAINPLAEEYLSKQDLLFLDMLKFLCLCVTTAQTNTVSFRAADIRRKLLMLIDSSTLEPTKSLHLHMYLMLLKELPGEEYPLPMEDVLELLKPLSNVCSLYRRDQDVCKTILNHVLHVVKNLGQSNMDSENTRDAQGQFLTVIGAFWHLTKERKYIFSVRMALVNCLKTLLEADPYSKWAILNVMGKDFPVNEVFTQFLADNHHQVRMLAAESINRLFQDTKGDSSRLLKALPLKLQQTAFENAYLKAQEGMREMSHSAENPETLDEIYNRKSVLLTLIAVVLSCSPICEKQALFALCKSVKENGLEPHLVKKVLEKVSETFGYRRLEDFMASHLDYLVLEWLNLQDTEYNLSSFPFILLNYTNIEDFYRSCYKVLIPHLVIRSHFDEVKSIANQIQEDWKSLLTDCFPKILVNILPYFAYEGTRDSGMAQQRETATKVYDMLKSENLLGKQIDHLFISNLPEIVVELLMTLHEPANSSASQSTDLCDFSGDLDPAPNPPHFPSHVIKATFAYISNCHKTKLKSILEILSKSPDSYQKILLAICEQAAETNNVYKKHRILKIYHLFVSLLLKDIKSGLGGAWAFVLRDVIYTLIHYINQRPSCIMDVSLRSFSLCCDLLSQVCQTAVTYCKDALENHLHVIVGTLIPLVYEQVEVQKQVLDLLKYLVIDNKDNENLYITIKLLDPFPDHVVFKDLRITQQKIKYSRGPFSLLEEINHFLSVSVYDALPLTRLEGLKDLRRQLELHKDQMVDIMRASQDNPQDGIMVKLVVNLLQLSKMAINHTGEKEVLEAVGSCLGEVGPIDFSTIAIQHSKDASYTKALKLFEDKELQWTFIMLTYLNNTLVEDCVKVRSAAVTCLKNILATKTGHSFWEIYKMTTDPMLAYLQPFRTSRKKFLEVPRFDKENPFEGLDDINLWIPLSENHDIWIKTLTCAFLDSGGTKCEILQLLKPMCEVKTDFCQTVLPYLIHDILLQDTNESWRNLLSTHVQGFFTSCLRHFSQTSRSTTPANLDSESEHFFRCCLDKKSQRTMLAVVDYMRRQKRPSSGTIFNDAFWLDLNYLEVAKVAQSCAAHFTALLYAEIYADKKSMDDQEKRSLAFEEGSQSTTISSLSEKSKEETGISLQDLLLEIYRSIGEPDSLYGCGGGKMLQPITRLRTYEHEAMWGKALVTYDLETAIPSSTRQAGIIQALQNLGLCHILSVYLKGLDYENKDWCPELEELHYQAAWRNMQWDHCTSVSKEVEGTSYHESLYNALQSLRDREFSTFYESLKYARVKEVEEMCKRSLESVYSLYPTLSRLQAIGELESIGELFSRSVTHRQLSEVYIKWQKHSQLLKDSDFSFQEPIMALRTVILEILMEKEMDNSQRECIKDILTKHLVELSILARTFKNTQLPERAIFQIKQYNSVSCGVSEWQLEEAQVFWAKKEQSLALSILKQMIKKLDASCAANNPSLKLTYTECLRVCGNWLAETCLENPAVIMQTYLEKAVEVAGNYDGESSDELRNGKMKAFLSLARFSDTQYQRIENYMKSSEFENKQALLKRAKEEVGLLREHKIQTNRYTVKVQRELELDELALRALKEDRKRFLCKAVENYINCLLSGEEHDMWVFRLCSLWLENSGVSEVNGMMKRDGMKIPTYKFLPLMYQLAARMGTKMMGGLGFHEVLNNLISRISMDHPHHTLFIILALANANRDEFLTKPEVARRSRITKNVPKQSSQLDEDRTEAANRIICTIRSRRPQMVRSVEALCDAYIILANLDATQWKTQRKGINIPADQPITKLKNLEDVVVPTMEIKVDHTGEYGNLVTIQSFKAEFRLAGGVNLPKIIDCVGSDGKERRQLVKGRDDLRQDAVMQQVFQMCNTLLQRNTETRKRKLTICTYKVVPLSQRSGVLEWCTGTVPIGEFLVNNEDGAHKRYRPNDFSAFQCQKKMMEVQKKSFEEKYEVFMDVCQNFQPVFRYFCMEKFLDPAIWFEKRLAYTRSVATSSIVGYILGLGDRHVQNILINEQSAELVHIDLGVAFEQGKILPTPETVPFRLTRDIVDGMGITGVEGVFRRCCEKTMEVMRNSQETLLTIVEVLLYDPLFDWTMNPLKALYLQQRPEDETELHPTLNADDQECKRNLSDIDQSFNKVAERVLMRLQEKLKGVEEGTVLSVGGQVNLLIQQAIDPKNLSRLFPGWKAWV
Description: 133 protein kinases and 7 lipid kinases were counterscreened, with 1938 used at 1 μM, using the Adapta, Lantha and Z-LYTE assays (SelectScreen Kinase Profiling Service; Thermofisher – experimental details of these assays can be found here: https://www.thermofisher.com/uk/en/home/industrial/pharma-biopharma/drug-discovery-development/target-and-lead-identification-and-validation/kinasebiology/kinase-activity-assays.html. The tree represention in KinMap[59] generated courtesy of Cell Signaling Technology, Inc. (www.cellsignal.com). mTORC1 (mTOR/RAPTOR/LST8) protein complex and ATM kinase and substrates were produced as previously described[57],[60]. Screening of 1938 was conducted using SuperSep Phos-Tag 50 μmol/l 100 x 100 x 6.6 mm 17-well (192-18001/199-18011) gels. For ATM assays, 100 nM ATM was incubated for 30 min at 30°C with 5 μM GST-p53 and 1 mM ATP, in the absence or presence of 200 μM 1938 in ATM Kinase Buffer (50 mM HEPES pH 7.5, 100 mM NaCl, 10% glycerol, 2 mM […], 5 mM MgCl2). As a positive control for ATM activation, the same reaction was carried out with 100 nM ATM/5 μM GST-p53/1 mM ATP in the presence of 100 nM Mre11-Rad50-Nbs1 (MRN) complex, a known activator of ATM[61]. […] Gels were then stained using InstantBlue™ Coomassie, and quantified using BioRad Image Lab Software. […]

For `CCN1CCN(c2ccc(Nc3cc(Nc4cccc5c4N(C(C)=O)CC5)ccn3)cc2)CC1` [Compound 1938], the “pAKT^S473 stimulation after expression of WT PI3Kα” value [1] was “restored 1938-mediated pAKT^S473 stimulation”, the “pAKT^S473 induction after expression of 1938-resistant p110α-mutants” value ([1]; D603K, L1006R, F1016S, L1006R/F1016S) was “none of the p110α-mutants resistant to 1938-activation in in vitro kinase assays showed a response” and the “pAKT in exposed sciatic nerves” value (rat sciatic nerve) was “pAKT induction”. The “effect on ATM activity” value (ATM) was “did not affect the activity”.
